Reference: patent publication US8822494B2 (Pfizer Inc., priority 2012, dated 2014)
pEC50: −log10 of the molar value. Where a name gives a salt, the structure may show the parent alone.

What was measured:
Human D1 [1] = target: T1, Human D1 (Homo sapiens (Human), UniProt P21728); test: D1 cAMP HTRF Assay; assay type: cell-based; details: HEK293T/hD1#1 stable cell line, 30 min at room temperature; footnote a = geometric mean of ≧7 determinations
Excerpt: This assay was used to determine the ability of a test compound to agonize (including partially agonize) D1. A Mab anti-cAMP labeled Cryptate visualizes the tracer. […] The signal, therefore, is inversely proportional to the concentration of cAMP in the sample.
The cAMP Dynamic kit was obtained from Cisbio International (Cisbio 62AM4PEJ). Multidrop Combi (Thermo Scientific) was used for assay additions. An EnVision (PerkinElmer) reader was used to read HTRF.
A HEK293T/hD1#1 stable cell line was constructed internally (Pfizer Ann Arbor).
Media was removed and cell pellet was re-suspended in PBS/[…] generating 2e5 cells/mL. […] Working solutions of cAMP-D2 and anti-cAMP-cryptate were prepared according to Cisbio instructions. […] The assay plate was incubated for 1 hour at room temperature. The assay plate was read on an EnVision plate reader using Cisbio recommended settings.
Data analysis was done using computer software. Percent effects were calculated from the compound controls. Ratio EC50 was determined using the raw ratio data from the EnVision reader. The cAMP standard curve was used in an analysis program to determine cAMP concentrations from raw ratio data. cAMP EC50 was determined using the calculated cAMP data.

Human D1 [2] = target: T1, Human D1; test: Human D1 Receptor Binding Assay ([3H]-SCH23390 competition); details: read-out: Human D1 Receptor Binding, Ki (μM); Geometric mean of 2-3 determinations; over-expressing LTK human cell lines, 0.5 nM [3H]-SCH23390, 30 min at 37° C.; footnote b = single determination, c = geometric mean of ≧4 determinations
Experimental: D1 binding assays were performed using over-expressing LTK human cell lines. […] These ligand and tissue concentrations were used in time course studies to determine linearity and equilibrium conditions for binding. […] The pellet was resuspended in assay buffer [50 mM Tris (pH 7.4@ RT) containing 4 mM MgSO4 and 0.5 mM EDTA]. […] Non-specific binding was determined by radioligand binding in the presence of a saturating concentration of (+)-Butaclamol (10 μM), a D1 antagonist. After a 30 minute incubation period at 37° C., assay samples were rapidly filtered through Unifilter-96 GF/B PEI-coated filter plates and rinsed with 50 mM Tris buffer (pH 7.4 at 4° C.). […] Ki values were calculated according to the Cheng-Prusoff equation: […]

T1 sequence (P21728 whole entry): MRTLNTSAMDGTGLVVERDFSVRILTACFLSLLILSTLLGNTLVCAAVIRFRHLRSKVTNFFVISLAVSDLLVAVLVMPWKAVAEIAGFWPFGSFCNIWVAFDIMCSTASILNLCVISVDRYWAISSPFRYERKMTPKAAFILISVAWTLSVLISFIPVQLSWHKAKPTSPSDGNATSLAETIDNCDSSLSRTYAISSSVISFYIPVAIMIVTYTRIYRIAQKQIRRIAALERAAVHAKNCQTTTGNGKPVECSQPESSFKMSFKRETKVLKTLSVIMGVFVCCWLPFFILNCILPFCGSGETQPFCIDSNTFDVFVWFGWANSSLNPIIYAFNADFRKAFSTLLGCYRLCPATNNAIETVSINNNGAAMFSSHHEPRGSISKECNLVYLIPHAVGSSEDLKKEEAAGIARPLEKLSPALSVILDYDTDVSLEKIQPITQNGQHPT

SMILES	pEC50 (Human D1 [1])	Ki (Human D1 [2]) [µM]
Cc1cc(Oc2nccc3[nH]ncc23)ccc1-n1c(C)nc2cnccc21 [Example 30, 4-[3-methyl-4-(2-methyl-1H-imidazo[4,5-c]pyridin-1-yl)phenoxy]-1H-pyrazolo[4,3-c]pyridine]	5.56	0.268
Cc1cc(Oc2nccc3[nH]ncc23)ccc1-c1cc(=O)[nH]nc1C [Example 31, 6-methyl-5-[2-methyl-4-(1H-pyrazolo[4,3-c]pyridin-4-yloxy)phenyl]pyridazin-3(2H)-one]	6.26	0.287
Cc1n[nH]c(=O)c(C)c1-c1ccc(Oc2nccc3[nH]ncc23)cc1 [Example 41, 4,6-dimethyl-5-[4-(1H-pyrazolo[4,3-c]pyridin-4-yloxy)phenyl]pyridazin-3(2H)-one]	6.90	0.0409
Cc1cc(Oc2nccc3[nH]ncc23)ccc1-c1cn[nH]c(=O)c1C [Example 42, 4-methyl-5-[2-methyl-4-(1H-pyrazolo[4,3-c]pyridin-4-yloxy)phenyl]pyridazin-3(2H)-one, trifluoroacetate salt]	6.47	0.123
Cc1c(-c2ccc(Oc3nccc4[nH]ncc34)cc2)n(C)c(=O)[nH]c1=O [Example 43, 1,5-dimethyl-6-[4-(1H-pyrazolo[4,3-c]pyridin-4-yloxy)phenyl]pyrimidine-2,4(1H,3H)-dione]	7.55	0.0175
Cc1cc(Oc2nccc3[nH]cc(C#N)c23)ccc1-c1c(C)ncnc1C [Example 44, 4-[4-(4,6-dimethylpyrimidin-5-yl)-3-methylphenoxy]-1H-pyrrolo[3,2-c]pyridine-3-carbonitrile]	7.26	0.0046
Cc1n[nH]c(=O)c(C)c1-c1ccc(Oc2nccc3[nH]nc(C)c23)cc1 [Example 45, 4,6-dimethyl-5-{4-[(3-methyl-1H-pyrazolo[4,3-c]pyridin-4-yl)oxy]phenyl}pyridazin-3(2H)-one]	7.18	0.0103
Cc1cc2[nH]ncc2c(Oc2ccc(-c3c(C)n[nH]c(=O)c3C)cc2)n1 [Example 46, 4,6-dimethyl-5-{4-[(6-methyl-1H-pyrazolo[4,3-c]pyridin-4-yl)oxy]phenyl}pyridazin-3(2H)-one]	7.05	0.0247
COc1cnc(Oc2ccc(-c3c(C)n[nH]c(=O)c3C)cc2)c2cn[nH]c12 [Example 47, 5-{4-[(7-methoxy-1H-pyrazolo[4,3-c]pyridin-4-yl)oxy]phenyl}-4,6-dimethylpyridazin-3(2H)-one]	5.89	0.695

Now from value to compound:

pEC50 (Human D1 [1])	Ki (Human D1 [2]) [µM]	SMILES
6.04	0.0723	Cc1ncnc(C)c1-c1ccc(Oc2nccc3[nH]ncc23)cc1F [Example 32, 4-[4-(4,6-dimethylpyrimidin-5-yl)-3-fluorophenoxy]-1H-pyrazolo[4,3-c]pyridine]
5.68	0.124	COc1cc(Oc2nccc3[nH]ncc23)ccc1-c1c(C)ncnc1C [Example 33, 4-[4-(4,6-dimethylpyrimidin-5-yl)-3-methoxyphenoxy]-1H-pyrazolo[4,3-c]pyridine]
5.62	0.391	Cc1ncnc(C)c1-c1ccc(Oc2nccc3[nH]ncc23)cc1C#N [Example 34, 2-(4,6-dimethylpyrimidin-5-yl)-5-(1H-pyrazolo[4,3-c]pyridin-4-yloxy)benzonitrile]
5.87	0.0696	Cc1ncnc(C#N)c1-c1ccc(Oc2nccc3[nH]ncc23)cc1F [Example 35, 5-[2-fluoro-4-(1H-pyrazolo[4,3-c]pyridin-4-yloxy)phenyl]-6-methylpyrimidine-4-carbonitrile]
6.13	0.118	Cc1cc(Oc2nccc3[nH]ncc23)c(F)cc1-c1c(C)ncnc1C [Example 36, 4-[4-(4,6-dimethylpyrimidin-5-yl)-2-fluoro-5-methylphenoxy]-1H-pyrazolo[4,3-c]pyridine]
6.61	0.0523	Cc1ncnc(C)c1-c1ccc(Oc2nccc3[nH]ncc23)cc1Cl [Example 37, 4-[3-chloro-4-(4,6-dimethylpyrimidin-5-yl)phenoxy]-1H-pyrazolo[4,3-c]pyridine]
5.60	0.129	Cc1ncnc(C)c1-c1ccc(Oc2nccc3[nH]ncc23)cc1 [Example 38, 4-[4-(4,6-dimethylpyrimidin-5-yl)phenoxy]-1H-pyrazolo[4,3-c]pyridine]
